Test system: atrial fibrillation
Test: open chest epicardial electrogram mapping of atrial fibrillation in animals at baseline and after ROS scavenger (NAC) administration
Format: in vivo
Description: In an illustrative embodiment, the proposed method and system involve use of an electrogram to monitor a patient's heart characteristics. An electrode recording system can be used to receive and store baseline electrogram signals from the heart of the patient during sinus rhythm. As discussed in more detail below, mapping is performed based on the received electrogram signals to generate high resolution maps in multiple atrial regions of the patient. A reactive oxygen species scavenger (e.g., NAC) is then administered to the patient. The electrogram is used to measure various characteristics of the heart after administration of the ROS scavenger. These characteristics can include dominant frequency (DF), cycle length (CL), organization index (OI), fractionation index (FI), recurrence morphology percentage (Rec %), Shannon's entropy (ShEn), conduction velocity, and voltage. The monitored characteristics can also include the number and stability of rotational, focal, and wavelet activities in different atrial regions of the heart. The various atrial regions of the heart can include posterior left atrium (PLA), left atrial free wall (LAFW), left atrial appendage (LAA), posterior right atrium (PRA), right atrial free wall (RAFW), right atrial appendage (RAA), etc. In alternative embodiments, different heart regions may be used.
In an illustrative embodiment, the proposed system uses a computing system to perform calculation of percentage changes of AF characteristics at each electrogram electrode location at different time intervals subsequent to administration of the ROS scavenger. The percentage changes are based on the baseline readings from the electrogram (i.e., the readings received prior to administration of the ROS scavenger). For example, the calculations of percentage changes can be after 30 minutes, 1 hour, and 2 hours in one embodiment. Alternatively, different or additional times may be used, such as 45 minutes, 1.5 hours, 3 hours, 4 hours, etc. In some implementations, rebolus of the ROS scavenger administration may be performed in between the time periods.
Referring to FIG. 2B, a baseline measurement for each of a plurality of characteristics is obtained using the electrogram system in an operation 230. The baseline measurements are measured prior to administration of the ROS scavenger in an operation 235, and mapping of the various characteristics is performed based on the measured characteristics in an operation 240. Any of the characteristics described herein can be used. The system continues conducting measurements using the electrogram at various periods of time subsequent to administration of the ROS scavenger, such as 30 minutes, 1 hour, 2 hours, etc. The system also calculates the percentage change for each of the measured characteristics at each of the periods of time, as compared to the baseline measurements in an operation 245. Hotspots are identified for each measured characteristic based on the percentage changes in the operation 245. In one embodiment, the determined percentage changes are compared to a percentage change threshold to determine whether a given area is a hotspot. The percentage change threshold can be 5%, 8%, 10%, 20%, etc. depending on the implementation. Alternatively, instead of basing the determination on the percentage change, the determination of whether an area is a hotspot can be based on the amount of absolute change in the measured characteristic, and can vary for each characteristic. Based on the identified hotspots, the system also calculates the percentage of overlap among the various hotspots from each of the characteristics in an operation 250. The system maps the overlapping hotspots (based on the percentage of overlap) so that they can be visualized in an operation 255, and the overlapping hotspots are then targeted for treatment.
Experiments were conducted on animals using the techniques described herein. […]

CC(=O)N[C@@H](CS)C(=O)O [NAC, N-acetylcysteine]
mapping field showing hotspot overlap in >50% of the EGM measures (Animal 1, LAFW, 1 hour after administration): 36%
mapping field showing hotspot overlap in >50% of the EGM measures (Animal 1, LAFW, 2 hours after administration): 13%
mapping field showing hotspot overlap in >50% of the EGM measures (Animal 8, LAFW, 1 hour after administration): 15%
mapping field showing hotspot overlap in >50% of the EGM measures (Animal 8, LAFW, (2) hours after administration): 48%
DF peak (LAFW and PLA, 1 hour after NAC, baseline peak 11.5 Hz, histogram of all 10 hearts): 9 Hz
DF peak (LAFW and PLA, 2 hours after NAC, baseline peak 11.5 Hz, histogram of all 10 hearts): 7.5 Hz
stability of observed 360 degree rotations in activation maps (LAFW, after NAC administration): significantly decreased
DF peak (RAA, after 1 hr NAC, baseline peak 8.5 Hz): 7.5 Hz
rotational source (after NAC administration): reduced
mapping field with overlap in more than 50% of the electrogram measurements (percentage change threshold 5%, Animal 1, 1 hour after administration): 19%
mapping field with overlap in more than 50% of the electrogram measurements (percentage change threshold 5%, Animal 1, 2 hours after administration): 27%
mapping field with overlap in more than 50% of the electrogram measurements (percentage change threshold 5%, Animal 8, 1 hour after administration): 17%
mapping field with overlap in more than 50% of the electrogram measurements (percentage change threshold 5%, Animal 8, 2 hours after administration): 47%
mapping field with overlap in more than 50% of the electrogram measurements (percentage change threshold 20%, Animal 1, after 1 hour): 2%
mapping field with overlap in more than 50% of the electrogram measurements (percentage change threshold 20%, Animal 1, after 2 hours): 7%
mapping field with overlap in more than 50% of the electrogram measurements (percentage change threshold 20%, Animal 8, after 1 hour): 6%
mapping field with overlap in more than 50% of the electrogram measurements (percentage change threshold 20%, Animal 8, after 2 hours): 29%

From patent publication US11911178B2, “System and method to detect and treat arrhythmogenic regions in atrial fibrillation” (Northwestern University, priority 2020, dated 2024)
